# Experimental data published in patent US8563715B2, “Pyrimidine derivative having cell protecting effect and uses thereof” (Zenyaku Kogyo Kabushikikaisha, priority 2008, dated 2013).
# Test system: astrocyte/neuron co-culture
# Assay: Brain cell damage induced by hydrogen peroxide treatment (LDH assay)
# Type: cell-based
# Conditions: Rattus norvegicus, hydrogen peroxide (250 μM), 24 hours, read-out: 50% inhibition concentration against cell damage in entire co-culture system (EC50 value)
# Procedure: The brain was removed from 1 to 2 day old Wistar rats (Charles River) or Sprague-Dawley (IGS) rats (Charles River), and the cerebral cortex including the hippocampus was excised under ice cooling. After this cerebral cortex was minced, it was digested with papain solution (9 U/ml) containing DNase I (30 U/ml) at 37 degrees Celsius for 15 minutes, dispersing the cells. After further carrying out mechanical dispersing by pipetting, it was passed through a cell strainer with a pore size of 70 μm, and a cell suspension was obtained. Cells derived from 1.4 cerebra were seeded on 150 mm tissue culture dish (Iwaki Glass), and primary culture was carried out at 37 degrees Celsius and 5% CO2 using a D-MEM medium (Invitrogen) containing 10% heat-inactivated fetal calf serum (JRH). One day after the start of the culture, the nonadherent cells were removed, and the primary cultured astrocytes were obtained by continuing the culture for 4 to 5 further days. The primary cultured astrocytes were dispersed by trypsin treating, suspended in cryopreservation solution, and cryopreserved.
# After thawing the cryopreserved primary cultured astrocytes, they were seeded on tissue culture plates (Iwaki Glass), and a confluent astrocyte layer was produced by a further 7 days of secondary culture using a D-MEM medium containing 10% heat-inactivated fetal calf serum. Neurons to be used in the co-culture with the astrocyte layer were obtained from fetal rat cerebrum. Briefly, brains were removed from Wistar rats (Charles River) or Sprague-Dawley (IGS) rats (Charles River) of embryonic age 18.5 days, and the cerebral cortex including the hippocampus was excised under ice cooling. After this cerebral cortex was minced, it was digested in papain solution (9 U/ml) containing DNase I (30 U/ml) at 37 degrees Celsius for 15 minutes, dispersing the cells. After further carrying out mechanical dispersing by pipetting, it was passed through a cell strainer with a pore size of 70 μm, and a cell suspension was obtained. This cell suspension was plated at a density of 1.3×10^5 cells/cm^2 on the astrocyte layer, and a co-culture was carried out using D-MEM/F-12 medium (Invitrogen) containing 10% heat-inactivated fetal calf serum and 5% horse serum (Invitrogen). 2 days after the start of the co-culture, cells were treated for 24 hours with 10 μM cytosine arabinoside in order to suppress the excessive cell proliferation of microglia and the like. 8 to 9 days after the start of the co-culture, cells were used for the test. Additionally, using one portion of the cells, immunofluorescent staining and nuclear staining was carried out with astrocyte recognizing antibodies (anti-GFAP) and neuron recognizing antibodies (anti-MAP2), in order to confirm that the present culture system is a co-culture system of astrocytes and neurons.
# An astrocyte/neuron co-culture cultured on a 96 well plate was used in the test. A predetermined concentration of the test substance and hydrogen peroxide (250 μM) was simultaneously added to the cell culture in each well with continuing cultivation, and analysis was done 24 hours after this treatment. Using an LDH Cytotoxicity Detection Kit (Takara Bio), analysis was carried out in accordance with the included instruction manual, and the damage to the entire co-culture system by the hydrogen peroxide treatment and the protective effect (EC 50 value) of the test substance was evaluated. Further, the cell bodies and the neuronal processes of the neurons were observed by microscope, and the neuroprotective effect was evaluated.
row,Compound,EC50
1,"CN1CCN(c2nc(N3CCCc4ccccc43)nc(N3CCOCC3)c2F)CC1 [Compound 167, 5-fluoro-4-(4-methylpiperazin-1-yl)-6-morpholino-2-(1,2,3,4-tetrahydro-1H-quinolin-1-yl)pyrimidine]",280 nM
2,"Nc1c(N2CCOCC2)nc(N2CCOCC2)nc1N1CCC(Cc2ccccc2)CC1 [Compound 67, 5-amino-4-(4-benzylpiperidin-1-yl)-2,6-dimorpholinopyrimidine]",1780 nM
3,"CN(C)c1nc(N2CCC(Cc3ccccc3)CC2)nc(N2CCOCC2)c1N [Compound 68, 5-amino-2-(4-benzylpiperidin-1-yl)-4-dimethylamino-6-morpholinopyrimidine]",860 nM
4,"CN1CCN(c2nc(N3CCOCC3)nc(N3CCN(c4ccccc4)CC3)c2F)CC1 [Compound 171, 5-fluoro-4-(4-methylpiperazin-1-yl)-2-morpholino-6-(4-phenylpiperazin-1-yl)pyrimidine]",490 nM
5,"CCN(CC)c1ccc(CCCCc2nc(N3CCOCC3)c(N)c(N3CCOCC3)n2)cc1 [Compound 145, 5-amino-2-[4-(4-diethylaminophenyl)butyl]-4,6-dimorpholinopyrimidine]",670 nM
6,"c1ccc2c(c1)CCN(c1nc(N3CCOCC3)cc(N3CCOCC3)n1)C2 [Compound 6, 4,6-dimorpholino-2-(1,2,3,4-tetrahydro-2H-isoquinolin-2-yl)pyrimidine]",8240 nM

# Test system: not given
# Assay: not given
# Conditions: not given
row,Compound,melting point
1,"Fc1ccccc1N1CCN(c2nc(N3CCNCC3)c(F)c(N3CCOCC3)n2)CC1 [Compound 182, 5-fluoro-2-[4-(2-fluorophenyl)piperazin-1-yl]-4-morpholino-6-(1-piperazinyl)pyrimidine]",51 to 52 °C
2,"Nc1c(N2CCOCC2)nc(/C=C/c2cccs2)nc1N1CCOCC1 [Compound 132, 5-amino-4,6-dimorpholino-2-[2-(2-thienyl)vinyl]pyrimidine]",221 to 223 °C
3,"CCOc1ccccc1N1CCN(c2nc(N3CCOCC3)cc(N3CCOCC3)n2)CC1 [Compound 27, 2-[4-(2-ethoxyphenyl)piperazin-1-yl]-4,6-dimorpholinopyrimidine]",184 °C
4,"Fc1c(N2CCOCC2)nc(N2CCN(c3ncccn3)CC2)nc1N1CCOCC1 [Compound 92, 5-fluoro-4,6-dimorpholino-2-[4-(pyrimidin-2-yl)piperazin-1-yl]pyrimidine]",163 to 165 °C
5,"CC(=O)C1(c2ccccc2)CCN(c2nc(N3CCOCC3)c(F)c(N3CCOCC3)n2)CC1 [Compound 118, 2-(4-acetyl-4-phenylpiperidin-1-yl)-5-fluoro-4,6-dimorpholinopyrimidine]",201 to 205 °C
6,"Cc1cccc(N2CCN(c3nc(N4CCN(Cc5ccc(NC(=O)OC(C)(C)C)cc5)CC4)nc(N4CCOCC4)c3F)CC2)c1C [Compound 193, 2-[4-(4-tert-butoxycarbonylaminobenzyl)piperazin-1-yl]-5-fluoro-4-morpholino-6-[4-(2,3-xylyl)piperazin-1-yl]pyrimidine]",104 to 105 °C
7,"CC(=O)C1(c2ccccc2)CCN(c2cc(N3CCOCC3)nc(N3CCOCC3)n2)CC1 [Compound 39, 4-(4-acetyl-4-phenylpiperidin-1-yl)-2,6-dimorpholinopyrimidine]",146 to 147 °C
8,"c1ccc(C2CN(c3nc(N4CCOCC4)cc(N4CCOCC4)n3)CCN2)cc1 (stereo not drawn) [Compound 16, 4,6-dimorpholino-2-(3-phenylpiperazin-1-yl)pyrimidine]",100 to 104 °C
9,"Fc1c(N2CCOCC2)nc(N2CCOCC2)nc1N1CCN(Cc2ccccc2)CC1 [Compound 90, 4-(4-benzylpiperazin-1-yl)-5-fluoro-2,6-dimorpholinopyrimidine]",108 to 111 °C
10,"Nc1c(N2CCOCC2)nc(/C=C/c2ccncc2)nc1N1CCOCC1 [Compound 134, 5-amino-4,6-dimorpholino-2-[2-(pyridin-4-yl)vinyl]pyrimidine]",216 to 220 °C
11,"CN(C)c1nc(N2CCOCC2)c(F)c(N2CCN(c3ccccc3F)CC2)n1 [Compound 112, 2-dimethylamino-5-fluoro-4-[4-(2-fluorophenyl)piperazin-1-yl]-6-morpholinopyrimidine]",95 °C
12,"Clc1ccc(N2CCN(c3nc(N4CCOCC4)cc(N4CCOCC4)n3)CC2)cc1 [Compound 33, 2-[4-(4-chlorophenyl)piperazin-1-yl]-4,6-dimorpholinopyrimidine]",213 °C
13,"Clc1ccccc1N1CCN(c2nc(N3CCOCC3)cc(N3CCOCC3)n2)CC1 [Compound 26, 2-[4-(2-chlorophenyl)piperazin-1-yl]-4,6-dimorpholinopyrimidine]",156 °C
14,"COc1ccccc1N1CCN(c2nc(N3CCOCC3)cc(N3CCOCC3)n2)CC1 [Compound 32, 2-[4-(2-methoxyphenyl)piperazin-1-yl]-4,6-dimorpholinopyrimidine]",214 °C
15,"CC(=O)c1ccc(N2CCN(c3nc(N4CCOCC4)c(F)c(N4CCOCC4)n3)CC2)cc1 [Compound 100, 2-[4-(4-acetylphenyl)piperazin-1-yl]-5-fluoro-4,6-dimorpholinopyrimidine]",195 to 198 °C
16,"Fc1ccccc1N1CCN(c2cc(N3CCOCC3)nc(N3CCN(c4ccccc4)CC3)n2)CC1 [Compound 58, 4-[4-(2-fluorophenyl)piperazin-1-yl]-6-morpholino-2-(4-phenylpiperazin-1-yl)pyrimidine]",90 to 91 °C
17,"Nc1c(N2CCOCC2)nc(/C=C/c2ccc(F)cc2)nc1N1CCOCC1 [Compound 135, 5-amino-2-[2-(4-fluorophenyl)vinyl]-4,6-dimorpholinopyrimidine]",193 to 195 °C
18,"COc1ccccc1N1CCN(c2nc(N3CCOCC3)c(F)c(N3CCOCC3)n2)CC1 [Compound 108, 5-fluoro-2-[4-(2-methoxyphenyl)piperazin-1-yl]-4,6-dimorpholinopyrimidine]",171 °C
19,"Oc1ccc(N2CCN(c3nc(N4CCOCC4)c(F)c(N4CCOCC4)n3)CC2)cc1 [Compound 107, 5-fluoro-2-[4-(4-hydroxyphenyl)piperazin-1-yl]-4,6-dimorpholinopyrimidine]",141 °C
20,"OC1(c2ccccc2)CCN(c2nc(N3CCOCC3)c(F)c(N3CCOCC3)n2)CC1 [Compound 116, 5-fluoro-2-(4-hydroxy-4-phenylpiperidin-1-yl)-4,6-dimorpholinopyrimidine]",177 to 180 °C
21,"COc1ccc(/C=C/c2nc(N3CCOCC3)c(NC(C)=O)c(N3CCOCC3)n2)cc1 [Compound 79, 5-acetylamino-2-[2-(4-methoxyphenyl)vinyl]-4,6-dimorpholinopyrimidine]",189 to 191 °C
22,"Cc1cccc(N2CCN(c3nc(N4CCN(C(=O)OC(C)(C)C)CC4)nc(N4CCOCC4)c3F)CC2)c1C [Compound 177, 2-(4-tert-butoxycarbonylpiperazin-1-yl)-5-fluoro-4-morpholino-6-[4-(2,3-xylyl)piperazin-1-yl]pyrimidine]",81 to 82 °C
23,"Fc1ccc(N2CCN(c3cc(N4CCOCC4)nc(N4CCOCC4)n3)CC2)cc1 [Compound 21, 4-[4-(4-fluorophenyl)piperazin-1-yl]-2,6-dimorpholinopyrimidine]",215 to 218 °C
24,"CCOc1ccccc1N1CCN(c2nc(N3CCOCC3)c(F)c(N3CCOCC3)n2)CC1 [Compound 103, 2-[4-(2-ethoxyphenyl)piperazin-1-yl]-5-fluoro-4,6-dimorpholinopyrimidine]",145 °C
25,"c1ccc(-c2c(N3CCOCC3)nc(N3CCOCC3)nc2N2CCN(c3ccccc3)CC2)cc1 [Compound 47, 2,4-dimorpholino-5-phenyl-6-(4-phenylpiperazin-1-yl)pyrimidine]",203 to 206 °C
26,"Fc1ccc(N2CCN(c3nc(N4CCOCC4)c(F)c(N4CCOCC4)n3)CC2)cc1 [Compound 96, 5-fluoro-2-[4-(4-fluorophenyl)piperazin-1-yl]-4,6-dimorpholinopyrimidine]",195 to 198 °C
27,"c1ccc(-c2c(N3CCOCC3)nc(N3CCN(c4ccccc4)CC3)nc2N2CCOCC2)cc1 [Compound 46, 4,6-dimorpholino-5-phenyl-2-(4-phenylpiperazin-1-yl)pyrimidine]",163 to 165 °C
